Test results: patent US6420363B1, “Mono- or polyenic carboxylic acid derivatives” (Eisai Co., Ltd., priority 1994, dated 2002)

How the values were obtained:
[1] = target: T1, all-trans retinoic acid receptors (RAR) (Homo sapiens, UniProt P10276); test: Receptor binding assay using nuclear extract fraction of human promyelocytic leukemia cell HL60; conditions: inhibition of specific binding of 3H-all-trans retinoic acid, 4° C., 16 hours
T1 construct: determined by the use of the nuclear extract fraction of HL60; endogenous in cells; host or cells: HL60 human promyelocytic leukemia cells, nuclear extract fraction
T1 sequence (P10276 1-462): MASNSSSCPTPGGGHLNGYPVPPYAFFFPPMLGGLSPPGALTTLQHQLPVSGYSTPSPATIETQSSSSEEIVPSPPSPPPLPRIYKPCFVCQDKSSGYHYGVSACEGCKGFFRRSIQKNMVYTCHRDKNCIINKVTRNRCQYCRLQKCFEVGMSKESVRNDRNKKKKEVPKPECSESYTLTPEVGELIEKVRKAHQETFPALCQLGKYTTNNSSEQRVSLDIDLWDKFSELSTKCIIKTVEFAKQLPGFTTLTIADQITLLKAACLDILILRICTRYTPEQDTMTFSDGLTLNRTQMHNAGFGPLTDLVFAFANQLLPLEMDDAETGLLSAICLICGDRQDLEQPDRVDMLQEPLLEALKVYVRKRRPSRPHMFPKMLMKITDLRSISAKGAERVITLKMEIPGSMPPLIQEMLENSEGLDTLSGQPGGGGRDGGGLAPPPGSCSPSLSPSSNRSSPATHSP
Procedure: Receptor Binding Assay Using Human Promyelocytic Leukemia Cell HL60
It is known that all-trans retinoic acid receptors (retinoic acid receptor: RAR) are is present in the nuclei of HL60 cells (Clara Nervi et al., Proc. Natl. Acad. Sci. U.S.A. 86, 5854(1989)). Therefore, the specific binding of all-trans retinoic acid for RAR was determined by the use of the nuclear extract fraction of HL60, and each test compound was examined for the ability to bind RAR by determining the inhibition against the specific binding.
The nuclear extract fraction was prepared as follows.
HL60 cells (5×10^8) were suspended in 15 ml of solution A (sodium phosphate (pH7.4): 5 mM, monothioglycerol: 10 mM, glycerol: 10% (v/v), phenylmethylsulfonyl fluoride (PMSF): 1 mM, aprotinin: 10 μg/ml, and leupeptin: 25 μg/ml). The obtained suspension was homogenized by the use of a homogenizer and centrifuged to remove the resulting supernatant. The sediment thus formed was suspended in 15 ml of solution B (Tris-HCl(pH8.5): 10 mM, monothioglycerol: 10 mM, glycerol: 10% (v/v), PMSF: 1 mM, aprotinin: 10 μg/ml, leupeptin: 25 μg/ml, and KCl: 0.8 M). The obtained suspension was allowed to stand at 4° C. for one hour, and subjected to ultracentrifugation (100,000×g, 4° C., 1 hr). The obtained supernatant was stored as the nuclear extract fraction in a frozen state at −80° C. until the use (METHODS IN ENZYMOLOGY, 189, 248).
The receptor binding assay was conducted as follows.
180 μl of the above fraction and 10 μl of a dilution of all-trans retinoic acid or a test compound were added to each well of a 96-well plate made of polypropylene, followed by the addition of 10 μl of 10 nM^3H-all-trans retinoic acid. The resulting plate was allowed to stand at 4° C. for 16 hours. A solution containing 3% of charcoal and 0.3% of dextran was added to the resulting reaction mixture. The mixture thus obtained was centrifuged to remove free ^3H-all-trans retinoic acid. The radioactivity of the resulting supernatant was determined by the use of a scintillation counter. The specific binding of ^3H-all-trans retinoic acid for RAR was determined by assuming the radioactivity found when 200 times as much all-trans retinoic acid was added to be the non-specific binding and subtracting it from the radioactivity determined above. The compounds which will be described below inhibited the binding of ^3H-all-trans retinoic acid dependently on the concentration.

HL60 cells = test: Antagonism against all-trans retinoic acid in inducing the differentiation of HL60 cells (CD11b-positive cells, flow cytometry); format: cell-based; conditions: Homo sapiens, HL-60, 120 h; CD11b-positive cells induced by 10 nM all-trans retinoic acid, 5 days
Description: Antagonism Against All-trans Retinoic Acid in Inducing the Differentiation of HL60 Cells
It is known that human promyelocytic leukemia cells HL60 differentiate into granulocyte-like cells in the presence of all-trans retinoic acid (Breitman, T., Selonick, S., and Collins, S., Proc. Natl. Acad. Sci. U.S.A. 77, 2936(1980)). In general, cells allow specific differentiation antigens to be expressed on the cell surfaces when they have achieved differentiation. When HL60 cells differentiate into granulocyte-like cells, CD11b which is a granulocyte/monocyte discriminating antigen is expressed on the cell surfaces (Fontana, J A., Reppuci, A., Durham, J P., and Mirand, D., Cancer Res. 46, 2469-2473 (1986)). The antagonism of a test compound against the differentiation into granulocyte-like cells induced by all-trans retinoic acid was studied by utilizing this phenomenon.
HL60 cells were cultured and maintained in a medium prepared by adding 10% of inactivated fetal bovine serum, 1 mM of sodium pyridinecarboxylate, 50 μM of β-mercaptoethanol, 100 IU/ml of penicillin and 100 μg/ml of streptomycin to RPMI1640 (culture medium formulated by Rosewell Park Memorial Institute).
An HL60 cell suspension (1×10^5 cells/ml) was put in a 48-well plate in an amount of one ml per unit well, followed by the addition of all-trans retinoic acid in a concentration of […] and a retinoid antagonist in various concentrations. The resulting mixtures were cultured in a 5% CO2-air incubator for 5 days. After the completion of the culture, the cells in each well was recovered into a test tube, followed by the addition of an FITC-labeled monoclonal antibody against CD11b (which is a specific antigen against glanulocytes and monocytes). The resulting cell suspension was fixed with 0.2% paraformaldehyde. The fixed cell suspension thus obtained was examined for the content of CD11b-positive cells in the HL60 cell population of each well by flow cytometry (Miller, L. J., Schwarting, R., and Springer, T A., J. Immunol. 137, 2891-2900 (1986)). The compounds which will be described below lowered the content of CD11b-positive cells induced by 10 nM all-trans retinoic acid dependently on the concentration.

Structure (SMILES)	IC50 [1]	IC50 (HL60 cells)	melting point
CC(/C=C/C(C)=C/c1ccc2c(c1)CCCN2C(C)C)=C\C(=O)O [Example 4, (E,E,E)-7-[1-(1-methylethyl)-1,2,3,4-tetrahydroquinolin-6-yl]-3,6-dimethyl-hepta-2,4,6-trienoic acid]	20 nM	74 nM	
CC(/C=C/C(F)=C(/C)c1ccc2c(c1)CCCN2C(C)C)=C\C(=O)O [Example 5, (E,E,E)-7-[1-(1-methylethyl)-1,2,3,4-tetrahydroquinolin-6-yl]-6-fluoro-3-methyl-octa-2,4,6-trienoic acid]	5.4 nM	39 nM	
COC(=O)/C=C(C)/C=C/C(F)=C(/C)c1ccc2c(c1)C(C)CCN2C(C)C (stereo not shown) [Example 8, Methyl (E,E,E)-7-[1-(1-methylethyl)-4-methyl-1,2,3,4-tetrahydroquinolin-6-yl]-6-fluoro-3-methyl-octa-2,4,6-trienoate]	17 nM	470 nM	
CC(/C=C/C(F)=C(/C)c1ccc2c(c1)C(C)CCN2C(C)C)=C\C(=O)O (stereo not shown) [Example 9, (E,E,E)-7-[1-(1-Methylethyl)-4-methyl-1,2,3,4-tetrahydroquinolin-6-yl]-6-fluoro-3-methyl-octa-2,4,6-trienoic acid]	> 50 nM	880 nM	
CCOC(=O)/C(F)=C(/C)c1ccc2c(c1)CC(C)CN2C(C)C (stereo not shown) [Example 13, Ethyl (E)-3-[1-(1-methylethyl)-3-methyl-1,2,3,4-tetrahydroquinolin-6-yl]-2-fluoro-2-butenoate]	12.5 nM	29 nM	
COC(=O)/C=C(C)/C=C/C(F)=C(/C)c1ccc2c(c1)CC(C)CN2C(C)C (stereo not shown) [Example 14, Methyl (E,E,E)-7-[1-(1-methylethyl)-3-methyl-1,2,3,4-tetrahydroquinolin-6-yl]-6-fluoro-3-methyl-octa-2,4,6-trienoate]	13 nM	130 nM	
CC1(C)CCC(C)(C)c2c1sc1c2-c2c(c(-c3ccc(C(=O)O)cc3)cn2Cc2cccnc2)CC1 [Example 210]			289 to 290 °C
